The source of these data is patent publication US9434711B2 (Janssen Pharmaceutica, NV, priority 2007, dated 2016).

pIC50: −log10 of the molar value. Like-named read-outs stand apart in the source and are kept apart here.

The target in the assay is canine TRPM8 (Canis lupus familiaris, UniProt Q1A7N1). The assay is described as follows: In Vitro Canine TRPM8 Functional Assay (Ca2+ fluorescence, icilin activation). Type of assay: cell-based. The conditions noted are these: for pIC50: read-out: IC50; for inhibition at 0.2 µM: read-out: % Inh @ 0.2; for inhibition at 0.5 µM: compound at 0.5 μM, read-out: % Inh @ 0.5. The essentials: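 Eight-point dose-response curves, each point averaging quadruplicate wells, gave EC50 or IC50. Canine TRPM8-expressing HEK293 cells, dye-loaded (Calcium 3), were pre-exposed 5 min to compound, then challenged with icilin at roughly EC80; intracellular Ca2+ read by FLIPR or FDSS fluorescence.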
Sequence of canine TRPM8 (Q1A7N1 1-1104): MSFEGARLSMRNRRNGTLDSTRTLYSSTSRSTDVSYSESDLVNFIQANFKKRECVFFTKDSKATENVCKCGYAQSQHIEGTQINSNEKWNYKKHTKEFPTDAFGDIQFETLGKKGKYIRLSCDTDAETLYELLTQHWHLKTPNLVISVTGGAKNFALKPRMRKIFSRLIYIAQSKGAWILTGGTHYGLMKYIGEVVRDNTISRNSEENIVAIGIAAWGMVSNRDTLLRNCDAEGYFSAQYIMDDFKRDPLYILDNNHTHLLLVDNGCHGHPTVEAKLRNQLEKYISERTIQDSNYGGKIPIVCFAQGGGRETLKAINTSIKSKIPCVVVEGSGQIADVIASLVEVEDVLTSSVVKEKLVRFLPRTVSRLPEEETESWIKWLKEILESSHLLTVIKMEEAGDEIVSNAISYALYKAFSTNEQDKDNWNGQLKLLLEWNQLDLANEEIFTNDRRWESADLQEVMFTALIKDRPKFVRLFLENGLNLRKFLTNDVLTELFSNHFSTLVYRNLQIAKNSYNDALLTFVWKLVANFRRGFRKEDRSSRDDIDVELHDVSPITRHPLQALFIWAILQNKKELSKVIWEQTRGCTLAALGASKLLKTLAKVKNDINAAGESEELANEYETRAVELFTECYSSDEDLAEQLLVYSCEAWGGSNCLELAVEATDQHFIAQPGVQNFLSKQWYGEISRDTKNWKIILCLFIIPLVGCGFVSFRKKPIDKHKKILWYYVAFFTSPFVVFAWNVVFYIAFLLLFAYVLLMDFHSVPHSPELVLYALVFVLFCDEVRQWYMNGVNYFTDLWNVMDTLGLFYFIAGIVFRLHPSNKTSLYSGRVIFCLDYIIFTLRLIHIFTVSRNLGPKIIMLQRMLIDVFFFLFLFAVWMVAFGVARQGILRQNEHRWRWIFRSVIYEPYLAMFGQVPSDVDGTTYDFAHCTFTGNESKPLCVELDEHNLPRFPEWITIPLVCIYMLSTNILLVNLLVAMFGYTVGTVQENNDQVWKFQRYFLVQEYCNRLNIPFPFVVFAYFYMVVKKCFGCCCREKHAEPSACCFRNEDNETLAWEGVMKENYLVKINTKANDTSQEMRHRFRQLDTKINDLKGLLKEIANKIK

The mark [1] stands for this setting: HEK293 cells stably expressing canine TRPM8, icilin activation, eight-point dose-response.
[2] abbreviates: compound at 0.2 μM, canine TRPM8, icilin activation.
Where [3] appears, read: canine TRPM8, icilin activation.
Where [4] appears, read: 0.2 μM compound, HEK293 cells stably expressing canine TRPM8, icilin activation.
Where [5] appears, read: HEK293 cells stably expressing canine TRPM8, icilin activation, average of two or more determinations.

As to `CCCCN(c1sc2ccccc2c1C(C)=O)S(=O)(=O)c1ccc(C(=O)OC)cc1` [Compound 339, N-(3-Acetyl-benzo[b]thiophen-2-yl)-N-(butyl)-4-carbomethoxy-benzenesulfonamide], the pIC50 – broadly, the negative decadic logarithm of the IC50, by convention in mol/L – under setting [1] is 7.58. The inhibition at 0.2 µM under setting [2] turned out to be 94%.
As to `CCCCN(c1sc2ccccc2c1C(C)(C)O)S(=O)(=O)c1ccc(C(C)=O)cc1` [Compound 344, N-(Butyl)-N-(3-(1-hydroxy-1-methyl-ethyl)-benzo[b]thiophen-2-yl)-4-acetyl-benzenesulfonamide], the pIC50 under setting [1] was 7.90. Under setting [2], the inhibition at 0.2 µM turned out to be 99%.
The matching figures for `CCS(=O)(=O)N(CCOC(C)(C)C)c1sc2ccccc2c1Br` [Compound 264, N-(3-Bromo-benzo[b]thiophen-2-yl)-N-(2-tert-butoxy-ethyl)-ethanesulfonamide]: 7.47 and 99%.
Consider `O=S(=O)(c1ccccc1)N(Cc1ccc(OC(F)(F)F)cc1)c1sc2ccccc2c1Cl` [Compound 6, N-(3-Chloro-benzo[b]thiophen-2-yl)-N-(4-trifluoromethoxy-benzyl)-benzenesulfonamide], for which the negative-log IC50 (pIC50) under setting [1] is 7.95. In addition, the inhibition at 0.5 µM under setting [3] was 99%.
As to `CSCCN(c1sc2ccccc2c1C)S(=O)(=O)c1ccccc1` [Compound 98, N-(3-Methyl-benzo[b]thiophen-2-yl)-N-(2-methylsulfanyl-ethyl)-benzenesulfonamide], the negative logarithm of the IC50 (pIC50) under setting [1] was 7.82. The inhibition at 0.2 µM under setting [2] worked out at 97%.
For the compound `Cc1c(N(CCC2CC2)S(=O)(=O)c2ccc(C3=NOS(=O)N3)cc2)sc2ccccc12` (centres unmarked) [Compound 611, N-(3-Methyl-benzo[b]thiophen-2-yl)-N-(cyclopropyl-ethyl)-4-(3H-[1,2,3,5]oxathiadiazole-2-oxide)-benzenesulfonamide], under setting [1], the pIC50 is 7.84. For the same compound, the “% Inh @ 0.2 (μM)” value under setting [2] stood at 101%.
On to `O=S(=O)(c1ccccc1)N(CC1CC1)c1sc2ccccc2c1Br` [Compound 255, N-(3-Bromo-benzo[b]thiophen-2-yl)-N-(cyclopropylmethyl)-benzenesulfonamide], for which the pIC50 under setting [1] is 7.07. In addition, under setting [2], the inhibition at 0.2 µM worked out at 89%.
For the compound `CS(=O)(=O)N(Cc1ccc(F)c(F)c1)c1sc2ccccc2c1Br` [Compound 151, N-(3-Bromo-benzo[b]thiophen-2-yl)-N-(3,4-difluoro-benzyl)-methanesulfonamide], the pIC50 under setting [1] is 7.78. The inhibition at 0.5 µM under setting [3] amounted to 96%.
Turning to `Cc1c(N(Cc2ccc(F)c(C(F)(F)F)c2)S(=O)(=O)c2cccc(C(=O)O)c2)sc2ccccc12` [Compound 305, N-(3-Methyl-benzo[b]thiophen-2-yl)-N-(4-fluoro-3-trifluoromethyl-benzyl)-3-carboxy-benzenesulfonamide], under setting [1], the negative-log IC50 (pIC50) is 7.92. For the same compound, the inhibition at 0.2 µM under setting [2] stood at 97%.
For the compound `CCN(c1sc2ccccc2c1C)S(=O)(=O)c1ccc(C(=O)O)cc1` [Compound 403, N-(3-Methyl-benzo[b]thiophen-2-yl)-N-(ethyl)-4-carboxy-benzenesulfonamide], the inhibition at 0.2 µM under setting [2] was 52%.
Regarding `O=S(=O)(c1cccnc1)N(Cc1ccc(OC(F)(F)F)cc1)c1sc2ccccc2c1Br` [Compound 323, N-(3-Bromo-benzo[b]thiophen-2-yl)-N-(4-trifluoromethoxy-benzyl)-pyridin-3-ylsulfonamide], under setting [1], the negative logarithm of the IC50 (pIC50) is 8.00. The inhibition at 0.2 µM under setting [2] is 102%.
For `CN(C)S(=O)(=O)c1cccc(S(=O)(=O)N(CCC(F)(F)F)c2cc3ccccc3s2)c1` [Compound 461, N-(Benzo[b]thiophen-2-yl)-N-(3,3,3-trifluoro-propyl)-3-dimethylsulfamoyl-benzenesulfonamide], the inhibition at 0.2 µM under setting [2] amounted to 30%.
`CCS(=O)(=O)N(Cc1ccc(F)c(C(F)(F)F)c1)c1sc2ccccc2c1Br` [Compound 183, N-(3-Bromo-benzo[b]thiophen-2-yl)-N-(4-fluoro-3-trifluoromethyl-benzyl)-ethanesulfonamide]: under setting [1], the pIC50 was 7.85. The inhibition at 0.5 µM under setting [3] was found to be 99%.
On to `Cc1c(N(CCCF)S(=O)(=O)c2ccccc2)sc2ccccc12` [Compound 819, N-(3-Fluoro-propyl)-N-(3-methyl-benzo[b]thiophen-2-yl)-benzenesulfonamide], for which, under setting [4], the inhibition at 0.2 µM is 98%. For the same compound, the negative-log IC50 (pIC50) under setting [5] is 7.68.
Regarding `Cc1c(N(Cc2cccc3cccnc23)S(=O)(=O)c2cc3ccccc3s2)sc2ccccc12` [Compound 19, N-(3-Methyl-benzo[b]thiophen-2-yl)-N-(quinolin-8-ylmethyl)-benzo[b]thiophene-2-sulfonamide], the inhibition at 0.5 µM under setting [3] stood at 58%.
As to `Cc1c(N(CCCCC(F)(F)F)S(=O)(=O)c2ccc(-c3nn(C)c(=O)[nH]3)cc2)sc2ccccc12` [Compound 812, N-(3-Methyl-benzo[b]thiophen-2-yl)-N-(5,5,5-trifluoro-pentyl)-4-(1-methyl-5-oxo-4,5-dihydro-1H-[1,2,4]triazol-3-yl)-benzenesulfonamide], the inhibition at 0.2 µM under setting [4] turned out to be 103%. Moreover, the pIC50 under setting [5] is 8.12.
Consider `O=C(O)c1ccc(S(=O)(=O)N(Cc2ccc(F)c(C(F)(F)F)c2)c2sc3ccccc3c2C2CCCC2)cc1` [Compound 502, N-(3-Cyclopentyl-benzo[b]thiophen-2-yl)-N-(4-fluoro-3-trifluoromethyl-benzyl)-4-carboxy-benzenesulfonamide], for which, under setting [1], the pIC50 was 8.00. Under setting [2], the inhibition at 0.2 µM is 100%.
Regarding `O=C(O)c1ccc(S(=O)(=O)N(Cc2ccc(F)c(C(F)(F)F)c2)c2sc3ccccc3c2Br)c(F)c1` [Compound 711, N-(3-Bromo-benzo[b]thiophen-2-yl)-N-(4-fluoro-3-trifluoromethyl-benzyl)-2-fluoro-4-carboxy-benzenesulfonamide], the negative logarithm of the IC50 (pIC50) under setting [1] is 8.70. Besides, the inhibition at 0.2 µM under setting [2] was found to be 102%.
As for `NC(=O)c1ccc(S(=O)(=O)N(Cc2ccc(F)c(C(F)(F)F)c2)c2cc3ccccc3s2)cc1` [Compound 413, N-(Benzo[b]thiophen-2-yl)-N-(4-fluoro-3-trifluoromethyl-benzyl)-4-carboxamide-benzenesulfonamide], the negative-log IC50 (pIC50) under setting [1] was 7.34. The “% Inh @ 0.2 (μM)” value under setting [2] is 93%.
Take `Cc1c(N(Cc2ccc(F)cc2)S(=O)(=O)c2ccc(OCc3ccc(F)cc3)c(F)c2)sc2ccccc12` [Compound 845, 3-Fluoro-N-(4-fluoro-benzyl)-4-(4-fluoro-benzyloxy)-N-(3-methyl-benzo[b]thiophen-2-yl)-benzenesulfonamide]: the inhibition at 0.2 µM under setting [4] worked out at 24%.
Regarding `CC(=O)c1ccc(S(=O)(=O)N(Cc2ccc(F)c(C(F)(F)F)c2)c2sc3ccccc3c2Br)cc1` [Compound 312, N-(3-Bromo-benzo[b]thiophen-2-yl)-N-(4-fluoro-3-trifluoromethyl-benzyl)-4-acetyl-benzenesulfonamide], under setting [1], the negative logarithm of the IC50 (pIC50) was 7.96. The inhibition at 0.2 µM under setting [2] was 102%.
The corresponding values for `O=S(=O)(c1cccnc1)N(CCCC(F)(F)F)c1sc2ccccc2c1Br` [Compound 407, N-(3-Bromo-benzo[b]thiophen-2-yl)-N-(4,4,4-trifluoro-butyl)-pyridin-3-yl-sulfonamide] are 7.37 and 96%.
With `Cc1c(N(Cc2ccc(OC(F)(F)F)cc2)S(=O)(=O)c2ccc(N(C)C)nc2)sc2ccccc12` [Compound 789], the negative-log IC50 (pIC50) under setting [1] is 7.93. Besides, the inhibition at 0.2 µM under setting [2] came out at 102%.
The corresponding values for `O=S(=O)(c1ccccc1)N(CC12CC3CC(CC(C3)C1)C2)c1sc2ccccc2c1Br` [Compound 249, N-(Adamant-1-ylmethyl)-N-(3-bromo-benzo[b]thiophen-2-yl)-benzenesulfonamide] are 9.05 and 97%.
Consider `COc1c(Cl)ccc2c(Cl)c(N(Cc3ccc(F)c(F)c3)S(=O)(=O)c3ccccc3)sc12` [Compound 144, N-(3,6-Dichloro-7-methoxy-benzo[b]thiophen-2-yl)-N-(3,4-difluoro-benzyl)-benzenesulfonamide], for which, under setting [3], the inhibition at 0.5 µM came out at 62%.
As to `Cc1c(N(CCC2CC2)S(=O)(=O)c2ccc(N3CCCCC3)cc2)sc2ccccc12` [Compound 751, N-(3-Methyl-benzo[b]thiophen-2-yl)-N-(cyclopropyl-ethyl)-4-piperidin-1-yl-benzenesulfonamide], the inhibition at 0.2 µM under setting [2] was found to be 54%.
Take `Cc1c(N(Cc2ccc(Cl)c(F)c2)S(=O)(=O)c2ccc(C(=O)O)cc2)sc2ccccc12` [Compound 521, N-(3-Methyl-benzo[b]thiophen-2-yl)-N-(4-chloro-3-fluoro-benzyl)-4-carboxy-benzenesulfonamide]: the negative-log IC50 (pIC50) under setting [1] was 8.70. The inhibition at 0.2 µM under setting [2] came out at 101%.
As for `Cc1c(N(CCC2CC2)S(=O)(=O)c2ccc(C(=O)N[C@H]3CCNC3)cc2)sc2ccccc12` [Compound 782, (S)-4-[(2-Cyclopropyl-ethyl)-(3-methyl-benzo[b]thiophen-2-yl)-sulfamoyl]-N-pyrrolidin-3-yl-benzamide], under setting [2], the inhibition at 0.2 µM stood at 33%.
Regarding `Cc1c(N(CC2CC2)S(C)(=O)=O)sc2ccccc12` [Compound 365, N-(Cyclopropylmethyl)-N-(3-methyl-benzo[b]thiophen-2-yl)-methanesulfonamide], under setting [2], the inhibition at 0.2 µM amounted to 38%.
Consider `COc1ccc(CN(c2sc3ccccc3c2C)S(=O)(=O)c2ccc(C(=O)O)cc2)cc1OC` [Compound 525, N-(3-Methyl-benzo[b]thiophen-2-yl)-N-(3,4-dimethoxy-benzyl)-4-carboxy-benzenesulfonamide], for which the inhibition at 0.2 µM under setting [2] worked out at 101%.
As for `Nc1ccc(S(=O)(=O)N(CCC(F)(F)F)c2sc3ccccc3c2Cl)cc1` [Compound 585, 4-Amino-N-(3-chloro-benzo[b]thiophen-2-yl)-N-(3,3,3-trifluoro-propyl)-benzenesulfonamide], the pIC50 under setting [1] is 8.19. In addition, the inhibition at 0.2 µM under setting [2] is 101%.
